{"source": "patent US20170165286A1", "about": "“COMPOSITIONS AND METHODS FOR TREATING DIABETES AND LIVER DISEASES” (Cempra Pharmaceuticals, Inc., priority 2014, published 2017)", "key": {"[1]": {"tested_on": "STAM mice", "experiment": "STAM model: serum biochemistry (HPLC)", "type": "in vivo", "description": "NASH-HCC (STAM™) Model. C57BL/6 (15-day-pregnant female) mice are obtained from Charles River Laboratories Japan (Kanagawa, Japan). Male pups are selected for the study. NASH is induced in male mice by a single subcutaneous injection of 200 μg streptozotocin (STZ, Sigma-Aldrich, USA) solution 2 days after birth, followed by feeding a HFD (57 kcal % fat, cat#: HFD32, CLEA Japan, Japan) beginning at 4 weeks of age. At 5 weeks of age, mice are divided into a control group and one or more treated group (generally 8 mice per group). Animals are sacrificed at 9 weeks of age, and biochemical, histological, and gene expression analyses are performed.\nDuring weeks 5-9 (starting at day 35±2), test compound is administered (generally orally) at various doses diluted to 10 mL/kg and according to various dosing protocols to treatment groups (8 mice each) while a second group (8 mice) is administered vehicle only. Animals are sacrificed at 9 weeks.\nMeasurement of serum biochemistry. For serum biochemistry, blood is collected in polypropylene tubes without anticoagulant and incubated at room temperature for 30 minutes, at 4° C. for 1 hour, and then centrifuged at 1,000×g for 15 minutes at 4° C. The supernatant is collected and stored at −80° C. until use. Serum triglyceride, HDL-cholesterol, LDL-cholesterol, VLDL-cholesterol, and chylomicron ([…]) are quantified by HPLC at Skylight Biotech Inc. (Japan).\nIllustrative dose response test groups. Group 1-Normal. Eight normal mice are fed with a normal diet ad libitum without any treatment until 9 weeks of age. Group 2-Vehicle. Eight NASH mice are orally administered vehicle (0.5% w/v methylcellulose+0.2% Tween®80) in a volume of 10 mL/kg twice daily from 5 to 9 week of age. Group 3-solithromycin 5 mg/kg. Eight NASH mice are orally administered vehicle supplemented with solithromycin at a dose of 5 mg/kg in the morning and the vehicle in the evening (5 mg/kg/day) from 5 to 9 weeks of age. Group 4-solithromycin 10 mg/kg. Eight NASH mice are orally administered vehicle supplemented with solithromycin at a dose of 10 mg/kg twice daily (20 mg/kg/day) from 5 to 9 weeks of age. Group 5-solithromycin 25 mg/kg. Eight NASH mice are orally administered vehicle supplemented with solithromycin at a dose of 25 mg/kg twice daily (50 mg/kg/day) from 5 to 9 weeks of age. Group 6-solithromycin 50 mg/kg. Eight NASH mice are orally administered vehicle supplemented with solithromycin at a dose of 50 mg/kg once daily (50 mg/kg/day) from 5 to 9 weeks of age."}, "[2]": {"tested_on": "BLM-induced pulmonary fibrosis model mice", "experiment": "Bleomycin-induced lung injury: BALF analysis, body weight", "type": "in vivo", "conditions": "for BALF Eosinophil / BALF Lymphocytes / BALF Macrophages / BALF Neutrophil / BALF Total cells: oral q.d. day −2 to 6", "description": "Bleomycin-Induced Lung Injury. Lung inflammation is induced in female mice by a single intratracheal administration of bleomycin. Twenty mice are divided into two groups. […] It is to be understood herein that 100 mg/kg in mice is generally considered to be equivalent to a 450-500 mg, such as 480 mg, dose in humans. Animals are sacrificed on Day 7.\nPathogen-free 7 weeks old female C57BL/6J mice are obtained from CLEA Japan (Tokyo, Japan) and allowed to acclimate at least 6 days. On day 0, twenty mice are induced to develop pulmonary fibrosis by a single intratracheal administration of bleomycin sulphate (BLM, Nippon Kayaku, Japan) in 0.9% saline in a volume of 50 μL per animal using a Microsprayer® (Penn-Century, USA). Individual body weight is measured daily during the experiment period. Survival, clinical signs and behavior of mice is monitored daily.\nSolithromycin Reduces Inflammation In Mice Caused By Bleomycin-Induced Lung Injury. Pulmonary fibrosis is a problem in the management of patients who have received chemotherapy for malignancies particularly with regimens that contain bleomycin (BLM), methotrexate, cyclophosphamide, and many new agents. These patients are susceptible to pulmonary infections as well as to inflammation from pulmonary injury. […] The effects of solithromycin on the ability to prevent lung inflammation and fibrosis is described in a bleomycin induced-lung inflammation and fibrosis model. Group 1 (BLM-Vehicle): Ten BLM-induced pulmonary fibrosis model mice are orally administered vehicle (Carboxymethyl cellulose) at a volume of 10 mL/kg once daily from day −2 (two days before BLM administration) to day 6. […]\nBALF samples were collected by flushing the lung via the trachea with sterile PBS three times (0.8 mL each). The first lavage was kept separate from the other two. BALF was centrifuged at 1,000×g for 3 minutes at 4° C. and the supernatant was collected and stored at −80° C. until use. The cell pellet from the first fraction and the remaining fractions of lavage fluid were pooled. Total cell number of BALF was counted with a hemocytometer and the cell differentials were determined by cytospin preparation stained with Diff-Quick (Sysmex, Japan). A differential cell count was performed on up to about 200 cells.\nMMP-9 in the BALF was quantified by the Mouse Total MMP-9 Quantikine ELISA Kit (R&D Systems, USA).\nAnalyses of BALF (bronchoalveolar lavage fluid). The cells in BALF are counted with a hemocytometer, and cell differentials are determined in cytospin preparations stained with Diff-Quik (Sysmex, Japan) MMP-9 in the supernatants from BALF are quantified by an enzyme-linked immunosorbent assay (ELISA; Cat# MMPT90, R&D Systems, USA). Histopathological assays for lung sections are performed according to standard methods. Masson's Trichrome staining and estimation of Ashcroft Score includes HE staining. Gene expression assays using total RNA from the lung are obtained using real-time RT-PCR analyses performed for TNF-α, MCP-1 and MMP-9."}, "[3]": {"conditions": "5 mg/kg q.d., listed as SOLI, 5 mg/kg"}, "[4]": {"conditions": "10 mg/kg b.i.d., listed as SOLI, 10 mg/kg"}, "[5]": {"conditions": "25 mg/kg b.i.d., listed as SOLI, 25 mg/kg"}, "[6]": {"conditions": "bleomycin mice, heading says 50 mg/kg q.d."}, "[7]": {"conditions": "bleomycin mice, heading says 50 mg/kg q.d., listed as SOLI"}}, "note": "Entries after “also recorded” stand apart in the source; their conditions may differ."}
{"compound": "CC[C@H]1OC(=O)[C@@](C)(F)C(=O)[C@H](C)[C@@H](O[C@@H]2O[C@H](C)C[C@H](N(C)C)[C@H]2O)[C@](C)(OC)C[C@@H](C)C(=O)[C@H](C)[C@H]2N(CCCCn3cc(-c4cccc(N)c4)nn3)C(=O)O[C@]12C", "note": "[solithromycin]", "values": [{"measurement": "Serum HDL-cholesterol", "setting": "[1]; 5 mg/kg q.d., 5 mg/kg", "result": "no statistically significant differences"}, {"measurement": "Serum VLDL-cholesterol", "setting": "[1]; 5 mg/kg q.d., 5 mg/kg", "result": "no statistically significant differences"}, {"measurement": "Serum chylomicron", "setting": "[1]; 5 mg/kg q.d., 5 mg/kg", "result": "no statistically significant differences"}, {"measurement": "Serum triglyceride", "setting": "[1]; 5 mg/kg q.d., 5 mg/kg", "result": "no statistically significant differences"}, {"measurement": "Serum HDL-cholesterol", "setting": "[1]; [3]", "result": "88.4 ± 14.2", "unit": "mg/dL"}, {"measurement": "Serum VLDL-cholesterol", "setting": "[1]; [3]", "result": "9.8 ± 5.3", "unit": "mg/dL"}, {"measurement": "Serum chylomicron", "setting": "[1]; [3]", "result": "1.5 ± 1.2", "unit": "mg/dL"}, {"measurement": "Serum triglyceride", "setting": "[1]; [3]", "result": "133.8 ± 110.1", "unit": "mg/dL"}, {"measurement": "Serum HDL-cholesterol", "setting": "[1]; 10 mg/kg b.i.d., 10 mg/kg", "result": "no statistically significant differences"}, {"measurement": "Serum VLDL-cholesterol", "setting": "[1]; 10 mg/kg b.i.d., 10 mg/kg", "result": "no statistically significant differences"}, {"measurement": "Serum chylomicron", "setting": "[1]; 10 mg/kg b.i.d., 10 mg/kg", "result": "no statistically significant differences"}, {"measurement": "Serum triglyceride", "setting": "[1]; 10 mg/kg b.i.d., 10 mg/kg", "result": "no statistically significant differences"}, {"measurement": "Serum HDL-cholesterol", "setting": "[1]; [4]", "result": "89.3 ± 21.5", "unit": "mg/dL"}, {"measurement": "Serum VLDL-cholesterol", "setting": "[1]; [4]", "result": "9.7 ± 3.8", "unit": "mg/dL"}, {"measurement": "Serum chylomicron", "setting": "[1]; [4]", "result": "1.4 ± 0.6", "unit": "mg/dL"}, {"measurement": "Serum triglyceride", "setting": "[1]; [4]", "result": "116.5 ± 58.8", "unit": "mg/dL"}, {"measurement": "Serum HDL-cholesterol", "setting": "[1]; 25 mg/kg b.i.d., 25 mg/kg", "result": "no statistically significant differences"}, {"measurement": "Serum VLDL-cholesterol", "setting": "[1]; 25 mg/kg b.i.d., 25 mg/kg", "result": "significantly decreased; also recorded: Statistically significant reduced"}, {"measurement": "Serum chylomicron", "setting": "[1]; 25 mg/kg b.i.d., 25 mg/kg", "result": "significantly decreased"}, {"measurement": "Serum triglyceride", "setting": "[1]; 25 mg/kg b.i.d., 25 mg/kg", "result": "significantly decreased; also recorded: Statistically significant reduced"}, {"measurement": "Serum HDL-cholesterol", "setting": "[1]; [5]", "result": "97.9 ± 26.3", "unit": "mg/dL"}, {"measurement": "Serum VLDL-cholesterol", "setting": "[1]; [5]", "result": "5.4 ± 3.2", "unit": "mg/dL"}, {"measurement": "Serum chylomicron", "setting": "[1]; [5]", "result": "0.7 ± 0.4", "unit": "mg/dL"}, {"measurement": "Serum triglyceride", "setting": "[1]; [5]", "result": "46.8 ± 47.8", "unit": "mg/dL"}, {"measurement": "MMP-9 expression", "setting": "[2]; bleomycin mice BALF (ELISA), heading says 50 mg/kg q.d.", "result": "decreasing trend"}, {"measurement": "Body weight changes compared to vehicle group", "setting": "[2]; bleomycin mice, any day and day of sacrifice", "result": "no significant differences"}, {"measurement": "BALF Eosinophil", "setting": "[2]; [6]", "result": "significantly decreased"}, {"measurement": "BALF Lymphocytes", "setting": "[2]; [6]", "result": "significantly decreased"}, {"measurement": "BALF Macrophages", "setting": "[2]; [6]", "result": "no significant difference"}, {"measurement": "BALF Neutrophil", "setting": "[2]; [6]", "result": "significantly decreased"}, {"measurement": "BALF Total cells", "setting": "[2]; [6]", "result": "significantly decreased"}, {"measurement": "BALF Eosinophil", "setting": "[2]; [7]", "result": "0.3 ± 0.2 × 10^4"}, {"measurement": "BALF Lymphocytes", "setting": "[2]; [7]", "result": "3.9 ± 1.9 × 10^4"}, {"measurement": "BALF Macrophages", "setting": "[2]; [7]", "result": "16.9 ± 9.6 × 10^4"}, {"measurement": "BALF Neutrophil", "setting": "[2]; [7]", "result": "0.7 ± 0.4 × 10^4"}, {"measurement": "BALF Total cells", "setting": "[2]; [7]", "result": "2.2 ± 1.2 × 10^5"}]}
